Experimental data: US20230180804A1, “FLAVOR COMPOSITION, AND FOOD AND BEVERAGE” (TAKASAGO INTERNATIONAL CORPORATION, priority 2020, published 2023)

Legend:
olfactory receptor OR9Q2 = biological target: T1, olfactory receptor OR9Q2 (Homo sapiens, UniProt Q8NGE9); test: OR9Q2 response inhibitory effect for p-cresol, luciferase reporter gene assay; assay type: cell-based; conditions: p-cresol 100 µM mixed with various concentrations of compound; cells expressing OR9Q2; ratio of Fold Increase value (FIGS. 1 to 11)
T1 construct: 20 N-terminal amino acid residues of bovine rhodopsin (Rho tag); expressed in transfected cells; host or cells: HEK293T
T1 sequence (Q8NGE9 1-314): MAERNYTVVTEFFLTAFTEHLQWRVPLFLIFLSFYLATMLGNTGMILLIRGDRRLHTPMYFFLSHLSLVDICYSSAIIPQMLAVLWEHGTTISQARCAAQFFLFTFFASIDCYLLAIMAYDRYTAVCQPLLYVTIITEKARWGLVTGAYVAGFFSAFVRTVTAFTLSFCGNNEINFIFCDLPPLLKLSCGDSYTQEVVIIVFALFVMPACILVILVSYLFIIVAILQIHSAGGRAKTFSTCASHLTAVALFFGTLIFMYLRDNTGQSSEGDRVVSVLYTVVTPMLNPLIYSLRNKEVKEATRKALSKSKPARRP
Procedure: The human olfactory receptor gene was obtained by cloning from Human Genomic DNA: Female (Promega) by PCR method based on the sequence information registered in GenBank. The 20 N-terminal amino acid residues of bovine rhodopsin were incorporated into the pME18S vector, and the obtained human olfactory receptor gene was incorporated downstream thereof to obtain a human olfactory receptor gene expression vector.
In 10 µL of Opti-MEM I (gibco), 0.05 µg of human olfactory receptor gene expression vector, 0.01 µg of RTP1S vector, 0.01 µg firefly luciferase vector pGL4.29 (Promega) containing cAMP response element promoter, and 0.005 µg of Renilla luciferase vector pGL4.74 (Promega) containing thymidine kinase promoter were dissolved to prepare a gene solution (for one well). HEK293T cells were seeded at 100 µL each in a 96-well plate (Biocoat, Coming) at the number of cells reaching confluence after 24 hours, and a gene solution was added to each well by the lipofection method according to the usage of Lipofectamine 3000 to introduce genes into the cells, and the cells were cultured at 37° C. in a 5% carbon dioxide atmosphere for 24 hours.
After removing the culture medium, the resultant was prepared with CD293 (gibco) medium ([…] added) so as to have a concentration for measuring the aroma substance to be tested, 50 µL of which was added each and stimulated for 3 hours, and then luciferase activity was measured according to the method of using the Dual-Luciferase Reporter Assay System (Promega). The response intensity of the olfactory receptor polypeptide was expressed as a Fold Increase value obtained by dividing the luciferase activity produced by stimulating the aroma substance by the luciferase activity produced in the test system containing no aroma substance.
p-Cresol at 100 µM was mixed with various concentrations of 1-oxacycloheptadecan-7-en-2-one, 1-oxacycloheptadecan-8-en-2-one, isoambrettolide, pentalide, muscone, civetone, 8-2-decenolactone, cinnamic aldehyde, […], sclareolide, and ethyl maltol, and receptor responses were measured in cells expressing OR9Q2. The ratio of the Fold Increase value in the test in which each compound was mixed was calculated, where the Fold Increase value in the test in none of these compounds was mixed was set to 100. FIGS. 1 to 11 present the results.

[1] = Sensory evaluation of p-cresol odor masking in p-cresol-containing citrus-flavored beverage; conditions: for p-Cresol Odor Intensity: beverage with 50 ppb p-cresol, average score of 7 panelists, scale 0-4
Procedure: To 2 g of lemon flavor obtained by making lemon oil into an essence, purified water was added to adjust the total amount to 1000 ml. To this citrus-flavored beverage, p-cresol adjusted to a concentration of 1% by mass with 95% ethanol was added to 50 ppb in the citrus-flavored beverage. To this p-cresol-containing citrus-flavored beverage, 1-oxacycloheptadecan-7-en-2-one was added at the concentrations presented in Table 1 to confirm the p-cresol odor intensity (masking effect) and the influence on the citrus flavor of each sample.
For the test, seven skilled panelists were selected to perform sensory evaluation. The p-cresol odor intensity of the p-cresol-containing citrus-flavored beverage without added l-oxacycloheptadecan-7-en-2-one was determined as “Rating: 4,” and the p-cresol odor intensity of the p-cresol-free citrus-flavored beverage was determined as “Rating: 0,” and the p-cresol odor intensity (masking effect) of each sample was relatively evaluated according to the following evaluation criteria.
In addition, the influence of the citrus-flavored beverage on the citrus flavor was evaluated absolutely according to the following evaluation criteria for the presence or absence of off- flavor other than p-cresol odor and citrus flavor (Off-Flavor Intensity).
The results are as in Table 1, presenting the average score of the evaluation results for each panelist.

[2] = Sensory evaluation of p-cresol odor masking in p-cresol-containing lemon dressing; conditions: lemon dressing with 500 ppb p-cresol; for p-Cresol Odor Intensity: average score of 9 panelists, scale 0-4
Procedure: To a commercially available lemon dressing, p-cresol adjusted to a concentration of 0.1% with 95% ethanol was added to 500 ppb in the lemon dressing. To this p-cresol-containing lemon dressing, l-oxacycloheptadecan-8-en-2-one was added at the concentrations presented in Table 18 to confirm the p-cresol odor intensity (masking effect) and the influence on the citrus flavor of each sample.
Nine skilled panelists were selected to perform the same sensory evaluation as in Example 1. The results are as in Table 18, presenting the average score of the evaluation results for each panelist.

[3] = Sensory evaluation of p-cresol odor masking in p-cresol-containing grated raw ginger; conditions: for p-Cresol Odor Intensity: grated ginger with 600 ppb p-cresol, average score of 9 panelists, scale 0-4
Procedure: To commercially available grated raw ginger, p-cresol adjusted to a concentration of 0.1% with 95% ethanol was added to a concentration of 600 ppb in the ginger. To this p-cresol-containing ginger, 1-oxacycloheptadecan-8-en-2-one was added at the concentrations presented in Table 16 to confirm the p-cresol odor intensity (masking effect) and the influence on the ginger flavor of each sample.
Nine skilled panelists were selected to perform the same sensory evaluation as in Example 1. The results are as in Table 16, presenting the average score of the evaluation results for each panelist.

[4] = citrus-flavored beverage with 50 ppb p-cresol
[5] = grated raw ginger with 600 ppb p-cresol

O=C1CCCCCCCCCCCCCCO1 [Pentalide, pentalide]
effect of suppressing the response of OR9Q2 to p-cresol (olfactory receptor OR9Q2): suppressing the response of OR9Q2 to p-cresol in a concentration-dependent manner | p-Cresol Odor Intensity ([1]; 0.01 ppt added): 3.6 points | p-Cresol Odor Intensity ([1]; 0.1 ppt added): 2.9 points | p-Cresol Odor Intensity ([1]; 1 ppb added): 1.4 points | p-Cresol Odor Intensity ([1]; 1 ppt added): 2.6 points | p-Cresol Odor Intensity ([1]; 10 ppb added): 1.0 points | p-Cresol Odor Intensity ([1]; 10 ppt added): 2.0 points | p-Cresol Odor Intensity ([1]; 100 ppb added): 0.6 points | p-Cresol Odor Intensity ([1]; 100 ppt added): 1.9 points | concentration at which the compound masks the p-cresol odor and does not affect the citrus flavor, lower limit [1, 4]: ≥ 0.1 ppt | concentration at which the compound masks the p-cresol odor and does not affect the citrus flavor, upper limit [1, 4]: ≤ 1 ppb | p-Cresol Odor Intensity ([2]; 1 ppb added): 1.1 points | p-Cresol Odor Intensity ([2]; 1 ppt added): 3.6 points | p-Cresol Odor Intensity ([2]; 10 ppb added): 0.9 points | p-Cresol Odor Intensity ([2]; 10 ppt added): 2.8 points | p-Cresol Odor Intensity ([2]; 100 ppt added): 1.9 points | concentration at which the compound masks the p-cresol odor and does not affect the citrus flavor, lower limit [2]: ≥ 10 ppt | concentration at which the compound masks the p-cresol odor and does not affect the citrus flavor, upper limit [2]: ≤ 10 ppb | p-Cresol Odor Intensity ([3]; 1 ppb added): 1.3 points | p-Cresol Odor Intensity ([3]; 1 ppt added): 3.3 points | p-Cresol Odor Intensity ([3]; 10 ppb added): 1.1 points | p-Cresol Odor Intensity ([3]; 10 ppt added): 2.7 points | p-Cresol Odor Intensity ([3]; 100 ppt added): 1.6 points | concentration at which the compound masks the p-cresol odor and does not affect the ginger flavor, lower limit [3, 5]: ≥ 10 ppt | concentration at which the compound masks the p-cresol odor and does not affect the ginger flavor, upper limit [3, 5]: ≤ 1 ppb
